Results as given in US9781933B2, “Tetrazolinone compound and use thereof” (Sumitomo Chemical Company, Limited, priority 2013, dated 2017).

System: wheat rust fungus (Puccinia recondita)
Assay: Comparative Test Example: wheat rust control at 50 ppm
Assay type: in vivo
Settings: 50 ppm foliar spray; wheat (SHIROGANE); inoculated 5 days after spraying
Experimental: After spraying, the plant was air-dried so as to dry the dilution on the surface of the leaves. […] After the inoculation, the plant was placed at 23° C. for one day under dark and high humidity condition, and cultivated, under illumination at 20° C. for 8 days, and then the area of lesion was investigated.

## Cc1cccc(-n2nnn(C)c2=O)c1COc1ccn(-c2ccc(F)cn2)n1 [compound 40]
  area of lesion relative to that on an untreated plant: ≤ 30%

## Cn1nnn(-c2ccccc2COc2ccn(-c3ccc(F)cc3)n2)c1=O [control compound, 1-(2-{[1-(4-fluorophenyl)-1H-pyrazol-3-yl]oxymethyl}-phenyl)-4-methyl-1,4-dihydrotetrazol-5-one]
  area of lesion relative to that on an untreated plant: ≥ 70%
